Consider 7 compounds from ChEMBL document CHEMBL1201862, “PubChem BioAssay data set” (2004).

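Results reflect a 48-hour exposure of cells in 96-well plates to compound at five concentrations. Here, GI50 denotes the concentration required for 50% inhibition of growth.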 Calls of active or inactive are those of the source. No stated cut-off is given here; in the data, active = GI50 up to about 1.1 µM and inactive = higher. Non-standard residues stand in square brackets, D forms with d. Residues, ends and D or L forms follow the SMILES beside them. *: point of attachment. Phe(4-NO2) = N[CH](Cc1ccc([N+](=O)[O-])cc1)C(=O)O; Boc = CC(C)(C)OC(=O)*

Among the test systems are 786-0; HCT-15; HOP-92; Hs-578T; K562; KM12; LOX IMVI; M14; MDA-MB-231; MDA-MB-435; OVCAR-4; SF-295; SK-MEL-2; SK-OV-3; SNB-19; SNB-75; SR; SW-620; T47D; TK-10.
Holding throughout (assay): NCI anticancer screen, dose series, 48 h

Turning to `Fc1c(F)c(C(F)(F)F)c(F)c(F)c1N/N=C\c1c[nH]c2ccccc12`, the GI50 with 786-0 was 3.44 µM (inactive); with HCT-15, 3.37 µM; with HOP-92, 3.61 µM (inactive); in the experiment on Hs-578T it was 8.38 µM (inactive); in the experiment with K562, 2.87 µM (inactive); in the experiment with KM12, 1.94 µM (inactive). Also, the GI50 was 3.3 µM (inactive) in the experiment on LOX IMVI; 1.62 µM (inactive) in the experiment with M14; 3.03 µM (inactive) in the experiment on MDA-MB-231; 1.51 µM (inactive) in the experiment with MDA-MB-435; 2.44 µM (inactive) in the experiment on OVCAR-4; 2.2 µM (inactive) with SF-295. Further, the GI50 was 2.78 µM (inactive) in the experiment with SK-MEL-2; 1.39 µM (inactive) with SK-OV-3; 2.86 µM (inactive) in the experiment with SNB-19; 1.27 µM (inactive) in the experiment with SNB-75; 2.75 µM (inactive) in the experiment on SR; 3.37 µM (inactive) with SW-620. The figures for the GI50 in the experiment on T47D and in the experiment with TK-10 were 2.4 µM (inactive) and 4.48 µM (inactive), respectively.
`CCCCCCc1ccc(C(=O)NO)cc1`: the GI50 in the experiment on 786-0 was 13.7 µM (inactive); with HCT-15, 12.6 µM; in the experiment with HOP-92, 48 µM (inactive); with Hs-578T, > 100 µM (inactive); with K562, 24.5 µM (inactive); in the experiment with KM12, 44.9 µM (inactive). Further, the GI50 in the experiment with LOX IMVI is 17.2 µM (inactive); in the experiment with M14, 35.1 µM (inactive); in the experiment on MDA-MB-231 it was 95.7 µM (inactive); in the experiment on MDA-MB-435, 53.5 µM (inactive); in the experiment on OVCAR-4, 20.4 µM (inactive); with SF-295 it was 40.6 µM (inactive). For the same compound, the GI50 with SK-MEL-2 is 44.9 µM (inactive); with SK-OV-3, 40.2 µM (inactive); in the experiment with SNB-19, 45.3 µM (inactive); with SNB-75 it was 42.9 µM (inactive); in the experiment with SR, 9.98 µM (inactive); in the experiment on SW-620, 64.4 µM (inactive). Moreover, the GI50 is 19.5 µM (inactive) in the experiment with T47D and 51.5 µM (inactive) in the experiment on TK-10.
In the case of `Nc1ncnc2c1nc(-c1ccccc1)n2C1OC(CO)C(O)C1O` (stereo not given), the GI50 is > 100 µM (inactive) with 786-0; above 100 µM with HCT-15; > 100 µM (inactive) with HOP-92; > 100 µM (inactive) with Hs-578T; > 100 µM (inactive) with K562; 86.7 µM (inactive) in the experiment on KM12. Further, the GI50 in the experiment with LOX IMVI, with M14, in the experiment on MDA-MB-231, in the experiment on MDA-MB-435, in the experiment with OVCAR-4 and in the experiment on SF-295 was > 100 µM (inactive) in each case. In addition, the GI50 in the experiment on SK-MEL-2, with SK-OV-3, in the experiment with SNB-19, in the experiment on SNB-75, with SR and in the experiment with SW-620 was > 100 µM (inactive) throughout. The GI50 in the experiment with T47D and in the experiment with TK-10 was > 100 µM (inactive) throughout.
Take `COC(=O)CCC(NC(=O)OC(C)(C)C)C(=O)NC(Cc1ccc([N+](=O)[O-])cc1)C(=O)NC(CCC(=O)OC)C(=O)OC` (stereo not given) (Boc-Glu(OMe)-[Phe(4-NO2)]-Glu(OMe)-OMe; configuration not given here): the GI50 is > 100 µM (inactive) in the experiment on 786-0; above 100 µM in the experiment on HCT-15; > 100 µM (inactive) in the experiment on HOP-92; > 100 µM (inactive) in the experiment with Hs-578T; 35.4 µM (inactive) in the experiment with K562; > 100 µM (inactive) with KM12. For the same compound, the GI50 in the experiment with LOX IMVI was 26.6 µM (inactive); in the experiment on M14, > 100 µM (inactive); in the experiment with MDA-MB-231, > 100 µM (inactive); with MDA-MB-435, > 100 µM (inactive); in the experiment on OVCAR-4, > 100 µM (inactive); in the experiment on SF-295, > 100 µM (inactive). Also, the GI50 is > 100 µM (inactive) with SK-MEL-2; > 100 µM (inactive) in the experiment with SK-OV-3; > 100 µM (inactive) with SNB-19; 33.1 µM (inactive) in the experiment on SNB-75; 28.8 µM (inactive) in the experiment on SR; > 100 µM (inactive) in the experiment on SW-620. Moreover, the GI50 in the experiment on T47D and in the experiment with TK-10 was > 100 µM (inactive) each time.
With `Cc1cc2nc(N3C(=O)/C(=C/Cc4ccco4)N=C3c3ccccc3)sc2cc1C`, the GI50 is 27.2 µM (inactive) in the experiment with 786-0; 30.5 µM in the experiment with HCT-15; 10.2 µM (inactive) with HOP-92; 39.3 µM (inactive) with Hs-578T; 22.8 µM (inactive) with K562; 25.9 µM (inactive) in the experiment on KM12. Also, the GI50 in the experiment on LOX IMVI is 25.9 µM (inactive); with M14, 35.6 µM (inactive); with MDA-MB-231 it was 51.5 µM (inactive); in the experiment with MDA-MB-435 it was 7.53 µM (inactive); with OVCAR-4, 29.5 µM (inactive); in the experiment on SF-295, 43.8 µM (inactive). The GI50 was 26.8 µM (inactive) in the experiment with SK-MEL-2; 92 µM (inactive) with SK-OV-3; 49.7 µM (inactive) in the experiment with SNB-19; 17.7 µM (inactive) in the experiment with SNB-75; 38.4 µM (inactive) with SR; 31.3 µM (inactive) in the experiment with SW-620. Besides, the GI50 in the experiment on T47D is 31 µM (inactive); with TK-10, 84.1 µM (inactive).
Take `COc1ccc(-n2nnc3c(C#N)c(-c4ccccc4)c(C)n3c2=O)cc1`: the GI50 in the experiment with 786-0 is 19.1 µM (inactive); in the experiment on HCT-15 it was 31.4 µM; in the experiment with HOP-92 it was 23.8 µM (inactive); in the experiment with Hs-578T, > 100 µM (inactive); with K562, 18.4 µM (inactive); with KM12, 48.9 µM (inactive). For the same compound, the GI50 with LOX IMVI is 33.8 µM (inactive); with M14 it was 81.8 µM (inactive); with MDA-MB-231, 25.2 µM (inactive); with MDA-MB-435 it was > 100 µM (inactive); in the experiment with OVCAR-4, 28.8 µM (inactive); in the experiment with SF-295 it was 54.6 µM (inactive). In addition, the GI50 was 28 µM (inactive) in the experiment on SK-MEL-2; > 100 µM (inactive) in the experiment with SK-OV-3; 78.7 µM (inactive) in the experiment with SNB-19; 27.1 µM (inactive) in the experiment with SNB-75; 7.45 µM (inactive) with SR; 27.2 µM (inactive) in the experiment on SW-620. Also, the GI50 with T47D is 49.5 µM (inactive); in the experiment on TK-10, 84.7 µM (inactive).
For `CC(=O)NCCc1c[nH]c2ccc(Cl)cc12`, the GI50 in the experiment with 786-0 was > 100 µM (inactive); in the experiment with HCT-15, above 100 µM; in the experiment on HOP-92, 79.8 µM (inactive); with Hs-578T it was > 100 µM (inactive); with K562, > 100 µM (inactive); with KM12, > 100 µM (inactive). For the same compound, the GI50 with LOX IMVI is > 100 µM (inactive); in the experiment on M14 it was 90.2 µM (inactive); in the experiment on MDA-MB-231, > 100 µM (inactive); in the experiment with MDA-MB-435, > 100 µM (inactive); in the experiment with OVCAR-4, > 100 µM (inactive); in the experiment on SF-295, > 100 µM (inactive). Further, the GI50 in the experiment with SK-MEL-2 is > 100 µM (inactive); in the experiment on SK-OV-3, > 100 µM (inactive); in the experiment on SNB-19, > 100 µM (inactive); in the experiment on SNB-75, 33.4 µM (inactive); with SR it was > 100 µM (inactive); in the experiment with SW-620 it was > 100 µM (inactive). The GI50 with T47D and with TK-10 was > 100 µM (inactive) throughout.
